In patent US12630498B2 (Genzyme Corporation, priority 2019, dated 2026) one finds EC50 and Emax data, which are given here for eleven compounds.

The test concerns the target T1, human Cystic Fibrosis Transmembrane Conductance Regulator (CFTR) harboring the ΔF508 mutation (Homo sapiens, UniProt P13569, DEL508-508).
T1 construct: expressed in transfected cells; host or cells: H441 carcinoma line (G418-selected)
Nature of the test: H441 cell ΔF508-CFTR-HRP cell surface assay (Emax and EC50). In kind it is cell-based. Particulars: for Emax: NCI-H441, NA = Not active. The source says:
Example 315: H441 Cell Emax and EC50 Two cell lines were used, the H441 carcinoma line and the CFHBE41o- (41o-) human bronchial epithelial line. Both cell lines expressed human Cystic Fibrosis Transmembrane Conductance Regulator (CFTR) harboring the ΔF508 mutation and with an in-frame fusion in CFTR extracellular loop 4 of Horse Radish Peroxidase (HRP) under control of the CMV promoter. In the presence of the HRP tag, ΔF508-CFTR transported to the cell surface was detectable upon addition of an HRP substrate (Luminata Forte). Both cell types were cultivated at 37° C. with CO2. […] For both cell types, the medium was changed every other day unless the culture was at low % confluence. Cells were used for the assays at 75% confluence. To a polypropylene (PP) 384-well plate, 15 pls DMSO was added to all wells in columns 1-22 and 24 (low Control). 15 μls of 260 μM VX809 (Lumacaftor), Selleckchem […], was added to column 23 wells (high Control). 15 pls of 10 mM test compound or VX809 (control) were added to wells of row A. Serial dilutions of Row A compound were performed 2×15 pls in rows A through 0 (15-point). A PP, 384-well plate containing the appropriate cell culture medium was prepared for each assay plate with 100 pls per well. For the doxycycline-induced 41o-cells, doxycycline for both the assay plate and the medium dilution plate was added at 0.0005 mg/ml to the medium. Both cell lines were plated for the assay at 30 pls per 384-well at 3.4×10 e^5 cells per ml ( 10K cells/well). H441 cells were plated on opaque, white, Corning plate 3704. 41o-cells were plated on collagen-coated opaque, white, Corning plate 356665. For 41o-cells, doxycycline was added to the medium. Using FX (Beckman) protocol, 10 pls diluted compound or medium was added per well to the Assay Plate as: 2 pls DMSO Dilution plate well was diluted in 100 pls of the Medium Dilution Plate well, mixed, and 10 pls was transferred to the Assay Plate. The final assay dilution series was 24.5, 12.3, 6.1, 3.1, 1.5, 0.8, 0.4, 0.2, 0.1, 0.05, 0.02, 0.01, 0.006, 0.003, 0.001 and 0 μM. The 41o-assay plates were incubated at 37° C. w/CO2, the H441 assay plates were incubated at 27° C. w/CO2, each overnight for two nights. After being brought to room temperature, the assay plate liquid was removed. 30 uls of Luminata Forte (Millipore ELLUF0100) was added per well and incubated at room temperature for 10 min. The plates were then read on a Topcount, protocol LumiMatti (CPS, luminescence). The data was analyzed for % of maximum, maximum VX809 signal, and EC50 using Pearl and SPEED tools.

T1 sequence (P13569 with tags, fused parts or gaps DEL508-508): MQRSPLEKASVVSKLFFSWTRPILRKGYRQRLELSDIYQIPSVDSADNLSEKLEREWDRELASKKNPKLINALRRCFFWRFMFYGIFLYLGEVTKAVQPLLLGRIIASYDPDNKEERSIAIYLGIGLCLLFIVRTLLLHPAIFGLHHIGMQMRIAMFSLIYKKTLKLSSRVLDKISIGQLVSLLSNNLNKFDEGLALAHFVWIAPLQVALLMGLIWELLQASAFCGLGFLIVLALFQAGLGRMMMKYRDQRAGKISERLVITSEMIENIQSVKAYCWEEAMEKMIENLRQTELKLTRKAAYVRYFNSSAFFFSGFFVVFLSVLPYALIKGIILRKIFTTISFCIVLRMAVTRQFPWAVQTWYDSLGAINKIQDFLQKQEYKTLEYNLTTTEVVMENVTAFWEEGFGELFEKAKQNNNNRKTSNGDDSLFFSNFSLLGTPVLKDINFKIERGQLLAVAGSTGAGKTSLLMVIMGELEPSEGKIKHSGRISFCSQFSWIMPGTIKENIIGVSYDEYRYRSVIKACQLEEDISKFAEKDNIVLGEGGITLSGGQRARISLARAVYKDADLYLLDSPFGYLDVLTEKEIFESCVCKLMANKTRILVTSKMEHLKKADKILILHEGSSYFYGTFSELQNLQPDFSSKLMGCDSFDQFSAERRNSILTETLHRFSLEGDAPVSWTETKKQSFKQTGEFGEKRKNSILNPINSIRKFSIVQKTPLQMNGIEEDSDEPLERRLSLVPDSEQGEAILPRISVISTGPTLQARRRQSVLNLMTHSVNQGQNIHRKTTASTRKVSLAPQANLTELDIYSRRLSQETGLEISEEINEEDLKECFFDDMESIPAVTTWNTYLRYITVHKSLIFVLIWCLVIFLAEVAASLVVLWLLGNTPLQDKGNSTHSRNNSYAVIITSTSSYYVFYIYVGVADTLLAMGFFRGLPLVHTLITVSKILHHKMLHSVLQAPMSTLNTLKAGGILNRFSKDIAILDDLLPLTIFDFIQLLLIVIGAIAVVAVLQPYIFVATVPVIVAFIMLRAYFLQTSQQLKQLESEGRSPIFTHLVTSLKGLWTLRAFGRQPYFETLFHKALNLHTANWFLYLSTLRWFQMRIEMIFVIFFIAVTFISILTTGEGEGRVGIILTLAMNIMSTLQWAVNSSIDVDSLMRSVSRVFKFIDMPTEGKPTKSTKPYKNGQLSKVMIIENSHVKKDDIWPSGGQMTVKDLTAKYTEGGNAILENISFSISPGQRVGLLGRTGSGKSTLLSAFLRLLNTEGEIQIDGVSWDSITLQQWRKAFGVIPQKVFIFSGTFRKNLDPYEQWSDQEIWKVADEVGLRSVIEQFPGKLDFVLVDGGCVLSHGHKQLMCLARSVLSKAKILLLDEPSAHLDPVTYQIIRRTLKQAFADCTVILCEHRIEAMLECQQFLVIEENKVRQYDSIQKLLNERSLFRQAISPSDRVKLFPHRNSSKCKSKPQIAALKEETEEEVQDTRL

Regarding `CC(C)(C)OC(=O)C[C@H](NC(=O)c1ccc2ccccc2c1OCc1ccc(C(F)(F)F)cc1)C(=O)O` (stereo in doubt) [Example 151, 4-(tert-butoxy)-4-oxo-2-(1-((4-(trifluoromethyl)benzyl)oxy)-2-naphthamido)butanoic Acid], the EC50 came out at 13400 nM and the Emax was 68.7%.

As for `CC(OCc1ccccc1)[C@H](NC(=O)c1ccc2cc(F)ccc2c1OCc1ccc(OC(F)(F)F)cc1)C(=O)O` (stereo in doubt) [Example 192, O-benzyl-N-(6-fluoro-1-((4-(trifluoromethoxy)benzyl)oxy)-2-naphthoyl)-L-allothreonine], the maximum response (Emax) was determined as 10.6%. For `CC(OCc1ccccc1)[C@H](NC(=O)c1ccc2cc(F)ccc2c1OCc1nc2ccccc2s1)C(=O)O` (stereo in doubt) [Example 215, N-(1-(benzo[d]thiazol-2-ylmethoxy)-6-fluoro-2-naphthoyl)-O-benzyl-L-allothreonine], a half-maximal effect (EC50) was put at 5700 nM and the Emax worked out at 89.9%.

Regarding `CC(C)(C)[C@H](NC(=O)c1ccc2ccccc2c1OCc1ccc(C(F)(F)F)cn1)C(=O)O` [Example 2, (S)-3,3-dimethyl-2-(1-((5-(trifluoromethyl)pyridin-2-yl)methoxy)-2-naphthamido)butanoic Acid], the EC50 stood at 4800 nM and the Emax is 151%. Taken in the same sequence, the figures for `O=C(N[C@H](C(=O)O)C12CC(C(F)(F)F)(C1)C2)c1ccc2ccccc2c1OCc1ccc(S(=O)(=O)C(F)(F)F)cc1` [Example 3, (S)-2-(3-(trifluoromethyl)bicyclo[1.1.1]pentan-1-yl)-2-(1-((4-((trifluoromethyl)sulfonyl)benzyl)oxy)-2-naphthamido)acetic Acid] were 2200 nM and 18.1%.

Turning to `O=C(N[C@H](C(=O)O)C12CC(C(F)(F)F)(C1)C2)c1ccc2cc(F)ccc2c1OCc1ccc(OC(F)(F)F)cc1` [Example 4, (S)-2-(6-fluoro-1-((4-(trifluoromethoxy)benzyl)oxy)-2-naphthamido)-2-(3-(trifluoromethyl)bicyclo[1.1.1]pentan-1-yl)acetic Acid], the response was half-maximal at 700 nM (EC50) and the Emax worked out at 37.2%.

For `CC(C)(c1ccccc1)[C@H](NC(=O)c1ccc2cc(F)ccc2c1OCC1CCC(F)(F)CC1)C(=O)O` [Example 7, (S)-2-(1-((4,4-difluorocyclohexyl)methoxy)-6-fluoro-2-naphthamido)-3-methyl-3-phenylbutanoic Acid], the EC50 stood at 2400 nM and the Emax was found to be 51.9%.

`O=C(N[C@H](C(=O)O)C12CC(C(F)(F)F)(C1)C2)c1ccc2cc(F)ccc2c1OCc1ccc(C(F)(F)F)cc1` [Example 15, (S)-2-(6-fluoro-1-((4-(trifluoromethyl)benzyl)oxy)-2-naphthamido)-2-(3-(trifluoromethyl)bicyclo[1.1.1]pentan-1-yl)acetic Acid] had an EC50 of 1700 nM and an Emax of 48.4%.

As to `CC(C)(c1ccccc1)[C@H](NC(=O)c1ccc2cc(F)ccc2c1OCc1ccc(SC(F)(F)F)cc1)C(=O)O` [Example 22, (S)-2-(6-fluoro-1-((4-((trifluoromethyl)thio)benzyl)oxy)-2-naphthamido)-3-methyl-3-phenylbutanoic Acid], the EC50 was 300 nM and the Emax worked out at 63.6%. Taken in the same sequence, the figures for `CC(C)(c1ccccc1)[C@H](NC(=O)c1ccc2ccccc2c1OCc1ccc(S(C)(=O)=O)cc1)C(=O)O` [Example 23, (S)-3-methyl-2-(1-((4-(methylsulfonyl)benzyl)oxy)-2-naphthamido)-3-phenylbutanoic Acid] were 9800 nM and 29.2%. In the same order, the values of `O=C(N[C@H](C(=O)O)C12CC(C(F)(F)F)(C1)C2)c1ccc2ccccc2c1OCc1ccc(S(F)(F)(F)(F)F)cc1` [Example 24, (S)-2-(1-((4-(pentafluoro-λ^6-sulfanyl)benzyl)oxy)-2-naphthamido)-2-(3-(trifluoromethyl)bicyclo[1.1.1]pentan-1-yl)acetic Acid] are 1100 nM and 66.1%.

As usually defined, the EC50 is the concentration at which the effect is half-maximal. What is called Emax is the size of the effect at its maximum, as opposed to the concentration needed.
